Laboratory results reported in the supplement of paper PMC8741786.
Values after ≈ are worked out from the molar mass of the structure shown.

System: Neisseria subflava/flavescens/perflava
Experiment: minimum inhibitory concentration (ETEST)
Details: population: general population, antibiotic use in previous 6 months: No
Protocol: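 Oropharyngeal Neisseria isolates from MSM and employees in Belgium were identified to species by MALDI-TOF MS. MICs of azithromycin, ceftriaxone and ciprofloxacin were determined by ETEST on GC agar after 24 h at 36.5 °C and 5-7% CO2, in mg/L. Values beyond the strip range are reported as >256 (azithromycin) or <0.016 (ceftriaxone); isolates that did not grow are NA.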

SMILES: O=C(O)c1cn(C2CC2)c2cc(N3CCNCC3)c(F)cc2c1=O [ciprofloxacin]
- minimum inhibitory concentration (isolate id (sample isolate): Co000767_1): 0.008 µg/mL (≈ 0.0241 µM)
- minimum inhibitory concentration (isolate id (sample isolate): Co000767_2): 1 µg/mL (≈ 3.02 µM)
- minimum inhibitory concentration (isolate id (sample isolate): Co000767_4): 0.016 µg/mL (≈ 0.0483 µM)
- minimum inhibitory concentration (isolate id (sample isolate): Co000767_5): 0.38 µg/mL (≈ 1.15 µM)
- minimum inhibitory concentration (isolate id (sample isolate): Co000767_6): 0.006 µg/mL (≈ 0.0181 µM)
- minimum inhibitory concentration (isolate id (sample isolate): Co000767_7): 0.38 µg/mL (≈ 1.15 µM)
- minimum inhibitory concentration (isolate id (sample isolate): Co000768_1): 0.006 µg/mL (≈ 0.0181 µM)
- minimum inhibitory concentration (isolate id (sample isolate): Co000768_2): 0.008 µg/mL (≈ 0.0241 µM)
- minimum inhibitory concentration (isolate id (sample isolate): Co000769_1): 0.5 µg/mL (≈ 1.51 µM)
- minimum inhibitory concentration (isolate id (sample isolate): Co000769_2): 0.008 µg/mL (≈ 0.0241 µM)
- minimum inhibitory concentration (isolate id (sample isolate): Co000769_4): 0.5 µg/mL (≈ 1.51 µM)
- minimum inhibitory concentration (isolate id (sample isolate): Co000770_2): 0.25 µg/mL (≈ 0.754 µM)
- minimum inhibitory concentration (isolate id (sample isolate): Co000770_4): 0.5 µg/mL (≈ 1.51 µM)
- minimum inhibitory concentration (isolate id (sample isolate): Co000770_6): 0.047 µg/mL (≈ 0.142 µM)
- minimum inhibitory concentration (isolate id (sample isolate): Co000771_2): 1 µg/mL (≈ 3.02 µM)
- minimum inhibitory concentration (isolate id (sample isolate): Co000771_3): 0.006 µg/mL (≈ 0.0181 µM)
- minimum inhibitory concentration (isolate id (sample isolate): Co000771_5): 0.016 µg/mL (≈ 0.0483 µM)
- minimum inhibitory concentration (isolate id (sample isolate): Co000772_1): 0.023 µg/mL (≈ 0.0694 µM)
- minimum inhibitory concentration (isolate id (sample isolate): Co000772_2): 0.016 µg/mL (≈ 0.0483 µM)
- minimum inhibitory concentration (isolate id (sample isolate): Co000772_4): 0.016 µg/mL (≈ 0.0483 µM)
- minimum inhibitory concentration (isolate id (sample isolate): Co000772_5): 0.012 µg/mL (≈ 0.0362 µM)
- minimum inhibitory concentration (isolate id (sample isolate): Co000772_6): 0.008 µg/mL (≈ 0.0241 µM)
- minimum inhibitory concentration (isolate id (sample isolate): Co000773_1): 0.38 µg/mL (≈ 1.15 µM)
- minimum inhibitory concentration (isolate id (sample isolate): Co000773_2): 0.38 µg/mL (≈ 1.15 µM)
- minimum inhibitory concentration (isolate id (sample isolate): Co000774_2): 0.047 µg/mL (≈ 0.142 µM)
- minimum inhibitory concentration (isolate id (sample isolate): Co000775_1): 1 µg/mL (≈ 3.02 µM)
- minimum inhibitory concentration (isolate id (sample isolate): Co000775_2): 0.016 µg/mL (≈ 0.0483 µM)
- minimum inhibitory concentration (isolate id (sample isolate): Co000775_3): 0.25 µg/mL (≈ 0.754 µM)
- minimum inhibitory concentration (isolate id (sample isolate): Co000776_2): 0.047 µg/mL (≈ 0.142 µM)
- minimum inhibitory concentration (isolate id (sample isolate): Co000776_3): 0.047 µg/mL (≈ 0.142 µM)
- minimum inhibitory concentration (isolate id (sample isolate): Co000777_1): 1 µg/mL (≈ 3.02 µM)
- minimum inhibitory concentration (isolate id (sample isolate): Co000777_2): 0.5 µg/mL (≈ 1.51 µM)
- minimum inhibitory concentration (isolate id (sample isolate): Co000777_4): 2 µg/mL (≈ 6.04 µM)
- minimum inhibitory concentration (isolate id (sample isolate): Co000778_1): 0.012 µg/mL (≈ 0.0362 µM)
- minimum inhibitory concentration (isolate id (sample isolate): Co000778_2): > 32 µg/mL
- minimum inhibitory concentration (isolate id (sample isolate): Co000778_3): 0.012 µg/mL (≈ 0.0362 µM)
- minimum inhibitory concentration (isolate id (sample isolate): Co000780_4): 0.75 µg/mL (≈ 2.26 µM)
- minimum inhibitory concentration (isolate id (sample isolate): Co000781_1): 0.5 µg/mL (≈ 1.51 µM)
- minimum inhibitory concentration (isolate id (sample isolate): Co000781_3): 2 µg/mL (≈ 6.04 µM)
- minimum inhibitory concentration (isolate id (sample isolate): Co000781_4): 0.75 µg/mL (≈ 2.26 µM)
- minimum inhibitory concentration (isolate id (sample isolate): Co000782_2): 0.016 µg/mL (≈ 0.0483 µM)
- minimum inhibitory concentration (isolate id (sample isolate): Co000782_3): 0.012 µg/mL (≈ 0.0362 µM)
- minimum inhibitory concentration (isolate id (sample isolate): Co000782_4): 0.023 µg/mL (≈ 0.0694 µM)
- minimum inhibitory concentration (isolate id (sample isolate): Co000783_1): 0.064 µg/mL (≈ 0.193 µM)
- minimum inhibitory concentration (isolate id (sample isolate): Co000783_2): 0.094 µg/mL (≈ 0.284 µM)
- minimum inhibitory concentration (isolate id (sample isolate): Co000783_5): 0.012 µg/mL (≈ 0.0362 µM)
- minimum inhibitory concentration (isolate id (sample isolate): Co000784_1): 0.023 µg/mL (≈ 0.0694 µM)
- minimum inhibitory concentration (isolate id (sample isolate): Co000784_2): 0.75 µg/mL (≈ 2.26 µM)
- minimum inhibitory concentration (isolate id (sample isolate): Co000784_5): 0.023 µg/mL (≈ 0.0694 µM)
- minimum inhibitory concentration (isolate id (sample isolate): Co000785_1): 0.016 µg/mL (≈ 0.0483 µM)
- minimum inhibitory concentration (isolate id (sample isolate): Co000785_2): 0.25 µg/mL (≈ 0.754 µM)
- minimum inhibitory concentration (isolate id (sample isolate): Co000785_3): 0.125 µg/mL (≈ 0.377 µM)
- minimum inhibitory concentration (isolate id (sample isolate): Co000785_4): 0.012 µg/mL (≈ 0.0362 µM)
- minimum inhibitory concentration (isolate id (sample isolate): Co000786_1): 0.047 µg/mL (≈ 0.142 µM)
- minimum inhibitory concentration (isolate id (sample isolate): Co000786_2): 0.016 µg/mL (≈ 0.0483 µM)
- minimum inhibitory concentration (isolate id (sample isolate): Co000787_1): > 32 µg/mL
- minimum inhibitory concentration (isolate id (sample isolate): Co000787_2): 0.023 µg/mL (≈ 0.0694 µM)
- minimum inhibitory concentration (isolate id (sample isolate): Co000787_4): 0.023 µg/mL (≈ 0.0694 µM)
- minimum inhibitory concentration (isolate id (sample isolate): Co000788_2): 0.25 µg/mL (≈ 0.754 µM)
- minimum inhibitory concentration (isolate id (sample isolate): Co000788_3): 0.016 µg/mL (≈ 0.0483 µM)
- minimum inhibitory concentration (isolate id (sample isolate): Co000788_5): 0.19 µg/mL (≈ 0.573 µM)
- minimum inhibitory concentration (isolate id (sample isolate): Co000789_1): 0.016 µg/mL (≈ 0.0483 µM)
- minimum inhibitory concentration (isolate id (sample isolate): Co000790_2): 0.006 µg/mL (≈ 0.0181 µM)
- minimum inhibitory concentration (isolate id (sample isolate): Co000790_4): 0.006 µg/mL (≈ 0.0181 µM)
